Data published in PubChem BioAssay (NCI).
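Interpolation was linear, between the two tested concentrations surrounding the appropriate level; five concentrations were tested over 48 hours in 96-well plates. Definition used: TGI = concentration required for complete inhibition of growth.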

Key:
Test in all cases: DTP human tumour cell line panel, 48 h
A498 renal = test system: A498 renal
CCRF-CEM leukemia = test system: CCRF-CEM leukemia
HOP-62 NSCLC = test system: HOP-62 NSCLC
KM12 colon = test system: KM12 colon
MDA-MB-231 breast = test system: MDA-MB-231 breast
NCI-H23 lung = test system: NCI-H23 lung
OVCAR-4 ovarian = test system: OVCAR-4 ovarian
SF-295 CNS = test system: SF-295 CNS
SNB-75 CNS = test system: SNB-75 CNS
UACC-62 melanoma = test system: UACC-62 melanoma
COLO 205 colon = test system: COLO 205 colon

O=c1cc(CF)[nH]c(=S)[nH]1
TGI (A498 renal): > 100 µM | TGI (CCRF-CEM leukemia): > 100 µM | TGI (HOP-62 NSCLC): > 100 µM | TGI (KM12 colon): > 100 µM | TGI (MDA-MB-231 breast): > 100 µM | TGI (NCI-H23 lung): > 100 µM | TGI (OVCAR-4 ovarian): > 100 µM | TGI (SF-295 CNS): > 100 µM | TGI (SNB-75 CNS): > 100 µM | TGI (UACC-62 melanoma): > 100 µM

COCn1cnc2c(=O)nc(SC)n(-c3ccccc3)c21
TGI (A498 renal): > 100 µM | TGI (CCRF-CEM leukemia): > 100 µM | TGI (COLO 205 colon): > 100 µM | TGI (HOP-62 NSCLC): > 100 µM | TGI (KM12 colon): > 100 µM | TGI (MDA-MB-231 breast): > 100 µM | TGI (NCI-H23 lung): > 100 µM | TGI (OVCAR-4 ovarian): > 100 µM | TGI (SF-295 CNS): > 100 µM | TGI (SNB-75 CNS): > 100 µM | TGI (UACC-62 melanoma): > 100 µM

CC(NC(=O)c1c(O)[nH]c(=S)[nH]c1=O)c1ccc([N+](=O)[O-])cc1 (centres undefined)
TGI (CCRF-CEM leukemia): > 100 µM | TGI (COLO 205 colon): > 100 µM | TGI (HOP-62 NSCLC): > 100 µM | TGI (KM12 colon): > 100 µM | TGI (MDA-MB-231 breast): > 100 µM | TGI (NCI-H23 lung): > 100 µM | TGI (OVCAR-4 ovarian): > 100 µM | TGI (SF-295 CNS): > 100 µM | TGI (SNB-75 CNS): 73.3 µM | TGI (UACC-62 melanoma): > 100 µM

CN1CCc2c(sc3[nH]c(=S)[nH]c(=S)c23)C1
TGI (CCRF-CEM leukemia): > 100 µM | TGI (COLO 205 colon): > 100 µM | TGI (HOP-62 NSCLC): > 100 µM | TGI (KM12 colon): > 100 µM | TGI (MDA-MB-231 breast): > 100 µM | TGI (NCI-H23 lung): > 100 µM | TGI (OVCAR-4 ovarian): > 100 µM | TGI (SF-295 CNS): > 100 µM | TGI (SNB-75 CNS): > 100 µM | TGI (UACC-62 melanoma): > 100 µM

CCCCCCc1cc2cc(C(=O)Nc3ccc(F)cc3)c(=N)oc2cc1O
TGI (A498 renal): > 100 µM | TGI (CCRF-CEM leukemia): 3.8 µM | TGI (COLO 205 colon): > 100 µM | TGI (HOP-62 NSCLC): 12.2 µM | TGI (KM12 colon): 10.1 µM | TGI (NCI-H23 lung): 4.6 µM | TGI (OVCAR-4 ovarian): 23.2 µM | TGI (SF-295 CNS): > 100 µM | TGI (UACC-62 melanoma): 8.7 µM

O=C1C=C(Nc2ccc(S(=O)(=O)Nc3nccs3)cc2)c2ccccc2C1=O
TGI (A498 renal): > 100 µM | TGI (CCRF-CEM leukemia): 48.1 µM | TGI (HOP-62 NSCLC): 29.7 µM | TGI (KM12 colon): 37.7 µM | TGI (MDA-MB-231 breast): 71.3 µM | TGI (NCI-H23 lung): > 100 µM | TGI (OVCAR-4 ovarian): > 100 µM | TGI (SF-295 CNS): 32.3 µM | TGI (SNB-75 CNS): 66.8 µM | TGI (UACC-62 melanoma): 53.5 µM

COc1ccc(/C(Cl)=C(\C#N)c2ccc(OC)c(OC)c2)cc1OC
TGI (A498 renal): > 100 µM | TGI (COLO 205 colon): > 100 µM | TGI (HOP-62 NSCLC): > 100 µM | TGI (MDA-MB-231 breast): > 100 µM | TGI (NCI-H23 lung): > 100 µM | TGI (OVCAR-4 ovarian): > 100 µM | TGI (SF-295 CNS): > 100 µM | TGI (UACC-62 melanoma): > 100 µM

COc1ccc(C2c3cc4c(cc3OC(N3CCOCC3)C2C)OCO4)cc1 (centres undefined)
TGI (A498 renal): 34.8 µM | TGI (CCRF-CEM leukemia): > 78.2 µM | TGI (COLO 205 colon): > 100 µM | TGI (HOP-62 NSCLC): > 72.2 µM | TGI (KM12 colon): > 100 µM | TGI (NCI-H23 lung): > 100 µM | TGI (OVCAR-4 ovarian): > 100 µM | TGI (SF-295 CNS): 67.5 µM | TGI (SNB-75 CNS): > 100 µM | TGI (UACC-62 melanoma): > 95.6 µM

NC1(CCNC(=O)c2ccccc2)CCN(C(=O)c2ccccc2)CC1
TGI (CCRF-CEM leukemia): > 100 µM | TGI (COLO 205 colon): > 100 µM | TGI (KM12 colon): > 100 µM | TGI (NCI-H23 lung): > 100 µM | TGI (SF-295 CNS): > 100 µM | TGI (SNB-75 CNS): > 100 µM | TGI (UACC-62 melanoma): > 100 µM

COC(=O)N[C@H](C(=O)NC(OCc1ccccc1)C1COC(C)(C)O1)C(C)O[Si](C)(C)C(C)(C)C (some centres undefined)
TGI (A498 renal): > 100 µM | TGI (CCRF-CEM leukemia): > 100 µM | TGI (COLO 205 colon): > 100 µM | TGI (HOP-62 NSCLC): > 100 µM | TGI (NCI-H23 lung): > 100 µM | TGI (OVCAR-4 ovarian): > 100 µM | TGI (SNB-75 CNS): > 100 µM

CCOC(=O)c1ccc(-c2ccc(Cl)cc2)[nH]1
TGI (CCRF-CEM leukemia): > 10 µM | TGI (KM12 colon): > 10 µM | TGI (NCI-H23 lung): > 10 µM | TGI (OVCAR-4 ovarian): > 10 µM | TGI (SF-295 CNS): > 10 µM | TGI (SNB-75 CNS): > 10 µM | TGI (UACC-62 melanoma): > 10 µM
